Test results: US11945811B2, “Potassium channel inhibitors” (ACESION PHARMA APS, priority 2021, dated 2024)

Molecular target: T1, human SK3 channel (hKCa2.3) (Homo sapiens, UniProt Q9UGI6)
T1 construct: expressed in transfected cells
Assay: Automated patch clamping (QPatch 16 HT whole-cell recordings)
Format: cell-based
Details: HEK-293 cells stably expressing hKCa2.3; currents measured at −80 mV; normalized to N-methyl bicuculline; read-out: IC50 in the Automated patch clamping assay (SK3 channel inhibition)
Protocol: Automated whole cell patch-clamp recordings were performed using a QPatch 16 HT system and single-hole Qplates (Sophion, Denmark) on HEK-293 cells stably expressing the human SK3 channel (hKCa2.3). Cells were cultured and prepared for experiments using normal cell culturing procedures. A total of 4-5 million cells were used per experiment. The Qpatch automatically generates giga sealing, whole-cell formation, compound application and recording of current. hKCa2.3 currents were recorded in symmetrical K^+ solutions. The intracellular/pipette solution contained 154 mM KCl, 10 mM HEPES and 10 mM EGTA. CaCl2 is added to give calculated free concentrations of Ca^2+ of 0.4 μM and MgCl2 is added to give a free concentration of 1 mM. In order to maintain a total [K^+] of 156 mM (corresponding to the concentration in the extracellular ringer) a fixed amount of KOH (15 mM) is added, thereafter pH is adjusted with HCl to pH=7.2. Expected osmolarity: 275 mOsm. Sucrose was added to a final osmolarity around 295 mosm. The extracellular solution consisted of (in mM): CaCl2 0.1, MgCl2 3, KCl 150, HEPES 10 and glucose 10, pH=7.4 adjusted with KOH. Osmolarity between 285-295 mosm. The cells were held at 0 mV and hKCa2.3 currents were elicited by a linear voltage ramp from −80 mV to +80 mV (200 ms in duration) applied every 5th second.
The compound application protocol consisted of 12 recording periods lasting 200 s: 1) Baseline recordings in extracellular solution; 2) Application of the positive control N-methyl bicuculline (100 μM), which is characterized by full efficacy, fast on- and off-rate; 3-4) Wash-out; 5-10) Increasing concentrations of test compound to establish an IC50 value; 11-12) Wash-out; 13) positive control with compound NS8593 (N-[(1R)-1,2,3,4-tetrahydro-1-naphthalenyl]-1H-benzimidazol-2-amine) (1 μM) or with N-methyl bicuculline (100 μM). Data were sampled at 10 kHz, 4th order Bessel filter, cut-off frequency 3 kHz. Currents were compensated for run-down. Potency was quantified as the concentration needed to inhibit half of the SK channel activity and reported as an IC50 value.
All effects of compounds of the present invention as tested were normalized to the observed inhibitory effect of N-methyl bicuculline. Currents were measured at −80 mV.

IC50	SMILES
< 1 µM	CC(CO)(Nc1nc2c(Cn3ccoc3=N)cccc2[nH]1)c1ccc(F)c(Cl)c1 (centres unmarked) [Example 8, 2-(3-chloro-4-fluorophenyl)-2-({4-[(2-imino-2,3-dihydro-1,3-oxazol-3-yl)methyl]-1H-1,3-benzodiazol-2-yl}amino)propan-1-ol]
< 1 µM	CC(CO)(Nc1nc2c(Cn3ccoc3=N)cccc2[nH]1)c1cccc(Cl)c1F (single isomer, unassigned; (-)) [Example 41a, (−)-2-(3-chloro-2-fluorophenyl)-2-({4-[(2-imino-2,3-dihydro-1,3-oxazol-3-yl)methyl]-1H-1,3-benzodiazol-2-yl}amino)propan-1-ol]
< 30 µM	CC(CO)(Nc1nc2c(Cn3ccoc3=N)cccc2[nH]1)c1ccc(Cl)c(F)c1 (single isomer, unassigned) [Example 39b, 2-(4-chloro-3-fluorophenyl)-2-({4-[(2-imino-2,3-dihydro-1,3-oxazol-3-yl)methyl]-1H-1,3-benzodiazol-2-yl}amino)propan-1-ol]
< 1 µM	CC(CO)(Nc1nc2c(Cn3ccsc3=N)cccc2[nH]1)c1ccc(F)c(Cl)c1 (centres unmarked) [Example 32, 2-(3-chloro-4-fluorophenyl)-2-({4-[(2-imino-2,3-dihydro-1,3-thiazol-3-yl)methyl]-1H-1,3-benzodiazol-2-yl}amino)propan-1-ol]
< 30 µM	CC(CO)(Nc1nc2c(CNc3ncco3)cccc2[nH]1)c1ccc(Cl)c(F)c1 (single isomer, unassigned; (-)) [Example 40a, (−)-2-(4-chloro-3-fluorophenyl)-2-[(4-{[(1,3-oxazol-2-yl)amino]methyl}-1H-1,3-benzodiazol-2-yl)amino]propan-1-ol]
< 30 µM	Cn1ccnc1NCc1cccc2[nH]c(NC(C)(CO)c3cccc(C(F)(F)F)c3)nc12 (centres unmarked) [Example 22, 2-((4-(((1-methyl-1H-imidazol-2-yl)amino)methyl)-1H-benzo[d]imidazol-2-yl)amino)-2-(3-(trifluoromethyl)phenyl)propan-1-ol]
< 30 µM	N=c1occn1Cc1cccc2[nH]c(NC3(c4cccc(Cl)c4)CC3)nc12 [Example 1, N-[1-(3-chlorophenyl)cyclopropyl]-4-[(2-imino-2,3-dihydro-1,3-oxazol-3-yl)methyl]-1H-1,3-benzodiazol-2-amine]
< 1 µM	CC(CO)(Nc1nc2c(Cn3ccoc3=N)cccc2[nH]1)c1ccc(F)c(Cl)c1 (single isomer, unassigned; (-)) [Example 8a, (−)-2-(3-chloro-4-fluorophenyl)-2-({4-[(2-imino-2,3-dihydro-1,3-oxazol-3-yl)methyl]-1H-1,3-benzodiazol-2-yl}amino)propan-1-ol]
< 1 µM	CC(CO)(Nc1nc2c(Cn3ccoc3=N)cccc2[nH]1)c1ccc(Cl)c(F)c1 (single isomer, unassigned) [Example 39a, 2-(4-chloro-3-fluorophenyl)-2-({4-[(2-imino-2,3-dihydro-1,3-oxazol-3-yl)methyl]-1H-1,3-benzodiazol-2-yl}amino)propan-1-ol]
< 1 µM	Cc1cn(Cc2cccc3[nH]c(NC(C)(CO)c4cccc(C(F)(F)F)c4)nc23)c(=N)o1 (centres unmarked) [Example 24, 2-({4-[(2-imino-5-methyl-2,3-dihydro-1,3-oxazol-3-yl)methyl]-1H-1,3-benzodiazol-2-yl}amino)-2-[3-(trifluoromethyl)phenyl]propan-1-ol]
< 30 µM	CC(CO)(Nc1nc2c(CNc3ncco3)cccc2[nH]1)c1cc(Cl)ccc1F (single isomer, unassigned; (+)) [Example 48a, (+)-2-(5-chloro-2-fluorophenyl)-2-[(4-{[(1,3-oxazol-2-yl)amino]methyl}-1H-1,3-benzodiazol-2-yl)amino]propan-1-ol]
< 1 µM	Cc1coc(=N)n1Cc1cccc2[nH]c(NC(C)(CO)c3cccc(C(F)(F)F)c3)nc12 (centres unmarked) [Example 23, 2-({4-[(2-imino-4-methyl-2,3-dihydro-1,3-oxazol-3-yl)methyl]-1H-1,3-benzodiazol-2-yl}amino)-2-[3-(trifluoromethyl)phenyl]propan-1-ol]
< 30 µM	COCC(C)(Nc1nc2c(Cn3ccoc3=N)cccc2[nH]1)c1cccc(Cl)c1 (centres unmarked) [Example 6, N-[2-(3-chlorophenyl)-1-methoxypropan-2-yl]-4-[(2-imino-2,3-dihydro-1,3-oxazol-3-yl)methyl]-1H-1,3-benzodiazol-2-amine]
< 30 µM	Cc1nnc(NCc2cccc3[nH]c(NC(C)(CO)c4ccc(F)c(Cl)c4)nc23)o1 (centres unmarked) [Example 16, 2-(3-chloro-4-fluorophenyl)-2-((4-(((5-methyl-1,3,4-oxadiazol-2-yl)amino)methyl)-1H-benzo[d]imidazol-2-yl)amino) propan-1-ol]
< 30 µM	CN1CCN(Cc2cccc3[nH]c(NC(C)(CO)c4ccc(F)c(Cl)c4)nc23)C1=O (centres unmarked) [Example 35, 1-[(2-{[2-(3-chloro-4-fluorophenyl)-1-hydroxypropan-2-yl]amino}-1H-1,3-benzodiazol-4-yl)methyl]-3-methylimidazolidin-2-one]
< 30 µM	CC(CO)(Nc1nc2c(CNc3ccon3)cccc2[nH]1)c1cc(Cl)ccc1F (single isomer, unassigned; (+)) [Example 49a, (+)-2-(5-chloro-2-fluorophenyl)-2-[(4-{[(1,2-oxazol-3-yl)amino]methyl}-1H-1,3-benzodiazol-2-yl)amino]propan-1-ol]
< 30 µM	Cn1nccc1NCc1cccc2[nH]c(NC(C)(CO)c3cccc(C(F)(F)F)c3)nc12 (centres unmarked) [Example 21, 2-((4-(((1-methyl-1H-pyrazol-5-yl)amino)methyl)-1H-benzo[d]imidazol-2-yl)amino)-2-(3-(trifluoromethyl)phenyl) propan-1-ol]
< 30 µM	COCC(C)(Nc1nc2c(Cn3c(C)coc3=N)cccc2[nH]1)c1cccc(Cl)c1 (centres unmarked) [Example 10, N-[2-(3-chlorophenyl)-1-methoxypropan-2-yl]-4-[(2-imino-4-methyl-2,3-dihydro-1,3-oxazol-3-yl)methyl]-1H-1,3-benzodiazol-2-amine]
< 30 µM	CC(CO)(Nc1nc2c(CNc3ccon3)cccc2[nH]1)c1cc(F)cc(Cl)c1 (single isomer, unassigned; (-)) [Example 46a, (−)-2-(3-chloro-5-fluorophenyl)-2-[(4-{[(1,2-oxazol-3-yl)amino]methyl}-1H-1,3-benzodiazol-2-yl)amino]propan-1-ol]
< 1 µM	CC(CO)(Nc1nc2c(Cn3ccoc3=N)cccc2[nH]1)c1cccc(Cl)c1 (single isomer, unassigned; (-)) [Example 3a, (−)-2-(3-chlorophenyl)-2-({4-[(2-imino-2,3-dihydro-1,3-oxazol-3-yl)methyl]-1H-1,3-benzodiazol-2-yl}amino)propan-1-ol]
< 30 µM	CC(CO)(Nc1nc2c(CN3CCSC3=O)cccc2[nH]1)c1ccc(F)c(Cl)c1 (centres unmarked) [Example 36, 3-[(2-{[2-(3-chloro-4-fluorophenyl)-1-hydroxypropan-2-yl]amino}-1H-1,3-benzodiazol-4-yl)methyl]-1,3-thiazolidin-2-one]
< 30 µM	Cc1noc(NCc2cccc3[nH]c(NC(C)(CO)c4ccc(F)c(Cl)c4)nc23)n1 (centres unmarked) [Example 17, 2-(3-chloro-4-fluorophenyl)-2-[(4-{[(3-methyl-1,2,4-oxadiazol-5-yl)amino]methyl}-1H-1,3-benzodiazol-2-yl)amino]propan-1-ol]
< 30 µM	CC(CO)(Nc1nc2c(Cn3ccoc3=N)cccc2[nH]1)c1cccc(Cl)c1F (single isomer, unassigned; (+)) [Example 41b, (+)-2-(3-chloro-2-fluorophenyl)-2-({4-[(2-imino-2,3-dihydro-1,3-oxazol-3-yl)methyl]-1H-1,3-benzodiazol-2-yl}amino)propan-1-ol]
< 1 µM	CC(C)(Nc1nc2c(Cn3ccoc3=N)cccc2[nH]1)c1cccc(Cl)c1 [Example 2, N-[2-(3-chlorophenyl)propan-2-yl]-4-[(2-imino-2,3-dihydro-1,3-oxazol-3-yl)methyl]-1H-1,3-benzodiazol-2-amine]
< 1 µM	CC(CO)(Nc1nc2c(Cn3ccoc3=N)cccc2[nH]1)c1ccc(Cl)c(Cl)c1 (single isomer, unassigned) [Example 19a]
< 1 µM	Cc1cc(NCc2cccc3[nH]c(NC(C)(CO)c4ccc(F)c(Cl)c4)nc23)no1 (single isomer, unassigned; (-)) [Example 12a, (−)-2-(3-chloro-4-fluorophenyl)-2-((4-(((5-methylisoxazol-3-yl)amino)methyl)-1H-benzo[d]imidazol-2-yl)amino)propan-1-ol]
